Assay results as given in ChEMBL document CHEMBL6074671, “Discovery of Pyridine-2-Carboxamides Derivatives as Potent and Selective HPK1 Inhibitors for the Treatment of Cancer” (J Med Chem, 2024).
pEC50, pIC50: −log10 of the molar value. In brackets after ≈: the same amount, converted by molar mass.

How the values were obtained:
[1] = test system: MC-38; assay: Antitumor activity against mouse MC38 cells implanted in C57BL/6 mouse model assessed as tumor growth inhibition at 12 mg/kg, po BID measured after 12 days relative to control; format: functional; details: MC-38, 288 h, time 12 day, read-out: TGI
[2] = biological target: Mitogen-activated protein kinase kinase kinase 7 (Homo sapiens, UniProt O43318); assay: Inhibition of TAK1 (unknown origin)
[3] = Toxicity in Balb/c mouse assessed as effect on body weight loss at 1.5 to 12 mg/kg, po BID measured after 15 days in presence of anti-PD1; format: organism-based; details: in vivo, 360 h, dose 1.5-12 mg/kg, time 15 day
[4] = biological target: Misshapen-like kinase 1 (Homo sapiens, UniProt Q8N4C8); assay: Inhibition of catalytic domain human GST-tagged N-terminal MAP4K6 (1 to 314 residues) expressed in insect Sf21 cells
Sequence of Misshapen-like kinase 1 (Q8N4C8 whole entry, the tested form may be a part): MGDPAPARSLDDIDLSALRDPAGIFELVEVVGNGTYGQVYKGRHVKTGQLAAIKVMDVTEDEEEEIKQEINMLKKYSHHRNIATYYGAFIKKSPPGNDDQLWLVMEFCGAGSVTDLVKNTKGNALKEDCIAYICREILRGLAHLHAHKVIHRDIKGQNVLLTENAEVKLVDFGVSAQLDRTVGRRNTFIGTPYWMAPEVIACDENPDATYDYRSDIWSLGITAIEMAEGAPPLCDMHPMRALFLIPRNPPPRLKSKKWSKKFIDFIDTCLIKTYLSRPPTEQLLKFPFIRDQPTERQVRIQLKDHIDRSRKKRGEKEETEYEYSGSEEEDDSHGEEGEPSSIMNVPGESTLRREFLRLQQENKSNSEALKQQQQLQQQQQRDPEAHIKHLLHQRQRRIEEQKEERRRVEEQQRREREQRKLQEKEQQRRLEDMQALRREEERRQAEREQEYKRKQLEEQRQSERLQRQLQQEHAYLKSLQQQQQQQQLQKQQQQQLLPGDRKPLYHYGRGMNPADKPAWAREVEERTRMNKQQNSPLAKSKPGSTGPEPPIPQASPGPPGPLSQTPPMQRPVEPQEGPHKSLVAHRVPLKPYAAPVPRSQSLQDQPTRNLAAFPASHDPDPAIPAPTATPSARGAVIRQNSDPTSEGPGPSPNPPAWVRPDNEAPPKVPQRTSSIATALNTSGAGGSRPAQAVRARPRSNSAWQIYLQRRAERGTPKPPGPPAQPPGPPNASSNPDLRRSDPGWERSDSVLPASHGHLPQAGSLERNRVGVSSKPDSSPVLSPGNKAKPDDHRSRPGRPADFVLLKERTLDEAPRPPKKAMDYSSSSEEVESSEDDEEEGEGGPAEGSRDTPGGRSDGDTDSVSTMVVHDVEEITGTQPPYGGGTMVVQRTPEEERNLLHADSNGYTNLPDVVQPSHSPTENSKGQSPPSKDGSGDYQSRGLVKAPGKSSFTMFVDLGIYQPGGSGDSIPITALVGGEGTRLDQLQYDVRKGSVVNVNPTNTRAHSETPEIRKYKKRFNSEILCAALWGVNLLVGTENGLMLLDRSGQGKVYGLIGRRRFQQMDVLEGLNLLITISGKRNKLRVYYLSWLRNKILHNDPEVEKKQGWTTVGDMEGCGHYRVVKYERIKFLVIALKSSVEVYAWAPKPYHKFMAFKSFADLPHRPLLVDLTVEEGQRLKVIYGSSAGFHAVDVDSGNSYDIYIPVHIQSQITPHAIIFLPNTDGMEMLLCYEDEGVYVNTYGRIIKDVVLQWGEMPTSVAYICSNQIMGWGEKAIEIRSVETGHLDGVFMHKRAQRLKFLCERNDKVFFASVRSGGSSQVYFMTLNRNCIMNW

[5] = Effect on IFN-gamma secretion in human T cells by ELISA method; format: functional, cell-based; details: T-cell
[6] = Toxicity in C57BL/6 mouse implanted with mouse MC38 cells assessed as effect on body weight loss at high dose, po BID measured after 12 days; format: organism-based; details: in vivo, 288 h, time 12 day
[7] = biological target: Cytochrome P450 3A4 (Homo sapiens, UniProt P08684); assay: Inhibition of CYP3A4 in human liver microsomes using midazolam 1-hydroxylation as substrate incubated for 10 mins in presence of NADPH by LC-MS/MS analysis; format: ADME, Microsome
[8] = Toxicity in C57BL/6 mouse implanted with mouse MC38 cells assessed as increase in survival at low dose, po BID measured after 12 days in presence of anti-PD-1; format: organism-based; details: in vivo, 288 h, time 12 day
[9] = biological target: Voltage-gated inwardly rectifying potassium channel KCNH2 (Homo sapiens, UniProt Q12809); assay: Inhibition of human ERG expressed in CHO cells; format: toxicity, cell-based
[10] = Solubility in compound in FessIF at pH 5.0 incubated for 24 hrs by HPLC-UV analysis; format: physicochemical
[11] = biological target: Interleukin-1 receptor-associated kinase 4 (Homo sapiens, UniProt Q9NWZ3); assay: Inhibition of IRAK4 (unknown origin)
[12] = biological target: Serine/threonine-protein kinase 3 (Homo sapiens, UniProt Q13188); assay: Inhibition of MST2 (unknown origin)
[13] = biological target: Non-receptor tyrosine-protein kinase TYK2 (Homo sapiens, UniProt P29597); assay: Inhibition of TYK2 (unknown origin)
Sequence of Non-receptor tyrosine-protein kinase TYK2 (P29597 whole entry): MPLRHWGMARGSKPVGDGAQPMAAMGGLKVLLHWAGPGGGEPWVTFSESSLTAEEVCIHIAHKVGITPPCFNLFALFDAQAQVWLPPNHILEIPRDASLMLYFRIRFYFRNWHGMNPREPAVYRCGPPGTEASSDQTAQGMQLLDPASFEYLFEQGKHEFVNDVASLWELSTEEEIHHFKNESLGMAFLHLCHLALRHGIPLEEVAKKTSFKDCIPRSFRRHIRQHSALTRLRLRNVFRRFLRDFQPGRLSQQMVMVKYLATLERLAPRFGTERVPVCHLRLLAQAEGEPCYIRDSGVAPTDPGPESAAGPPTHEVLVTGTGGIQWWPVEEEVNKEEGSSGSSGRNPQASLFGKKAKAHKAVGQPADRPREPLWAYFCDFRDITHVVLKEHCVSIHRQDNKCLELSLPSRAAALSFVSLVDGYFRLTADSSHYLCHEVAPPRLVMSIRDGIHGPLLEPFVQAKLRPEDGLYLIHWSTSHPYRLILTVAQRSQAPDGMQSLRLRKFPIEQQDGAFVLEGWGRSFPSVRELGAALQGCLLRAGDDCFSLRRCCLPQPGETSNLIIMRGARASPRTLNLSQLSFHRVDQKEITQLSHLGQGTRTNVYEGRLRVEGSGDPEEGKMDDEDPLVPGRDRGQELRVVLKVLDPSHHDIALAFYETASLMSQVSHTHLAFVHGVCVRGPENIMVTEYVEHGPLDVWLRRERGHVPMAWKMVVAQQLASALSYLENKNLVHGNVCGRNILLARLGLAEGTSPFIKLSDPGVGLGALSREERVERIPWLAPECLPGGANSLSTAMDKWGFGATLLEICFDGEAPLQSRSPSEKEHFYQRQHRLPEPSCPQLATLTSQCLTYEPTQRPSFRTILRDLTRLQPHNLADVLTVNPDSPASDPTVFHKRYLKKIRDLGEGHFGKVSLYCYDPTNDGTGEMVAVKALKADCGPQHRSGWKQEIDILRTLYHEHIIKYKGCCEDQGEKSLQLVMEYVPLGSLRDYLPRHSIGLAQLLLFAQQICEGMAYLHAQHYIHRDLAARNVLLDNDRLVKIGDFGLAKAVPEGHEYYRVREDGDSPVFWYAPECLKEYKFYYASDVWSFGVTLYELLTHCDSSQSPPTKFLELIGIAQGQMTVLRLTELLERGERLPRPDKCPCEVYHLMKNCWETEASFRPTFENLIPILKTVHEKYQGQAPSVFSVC

[14] = in vivo; details: Beagle, dog, iv, 1 mg/kg
Description: Volume of distribution in Beagle dog at 1 mg/kg, iv

[15] = Plasma protein binding in mouse assessed as unbound fraction at 2 uM incubated for 4 hrs by LC-MS/MS analysis; format: ADME, cell-free
[16] = biological target: Mitogen-activated protein kinase 14 (Homo sapiens, UniProt Q16539); assay: Inhibition of p38 alpha (unknown origin)
[17] = Toxicity in C57BL/6 mouse implanted with mouse MC38 cells assessed as increase in survival at high dose, po BID measured after 12 days; format: organism-based; details: in vivo, 288 h, time 12 day
[18] = biological target: Tyrosine-protein kinase JAK2 (Homo sapiens, UniProt O60674); assay: Inhibition of JAK2 (unknown origin)
[19] = biological target: Serine/threonine-protein kinase 4 (Homo sapiens, UniProt Q13043); assay: Inhibition of MST1 (unknown origin)
[20] = in vivo; details: Sprague-Dawley, rat, iv, 1 mg/kg
Description: Volume of distribution in Sprague-Dawley rat at 1 mg/kg, iv

[21] = test system: CT26; assay: Antitumor activity against mouse CT26 cells implanted in Balb/c mouse model assessed as tumor growth inhibition at high dose administered as po BID measured after 15 days relative to control; format: functional; details: time 15 day
[22] = Half life in Sprague-Dawley rat at 10 mg/kg, po; format: ADME, organism-based; details: in vivo
[23] = test system: MC-38; assay: Antitumor activity against mouse MC38 cells implanted in C57BL/6 mouse model assessed as tumor growth inhibition at 3 mg/kg, po BID measured after 12 days relative to control; format: functional; details: MC-38, 288 h, time 12 day, read-out: TGI
[24] = Toxicity in C57BL/6 mouse implanted with mouse MC38 cells assessed as increase in survival at high dose, po BID measured after 12 days in presence of anti-PD-1; format: organism-based; details: in vivo, 288 h, time 12 day
[25] = biological target: T1, Mitogen-activated protein kinase kinase kinase kinase 1 (Homo sapiens, UniProt Q92918); assay: Inhibition of HPK1 in human PBMC cells assessed as IL-2 level pretreated for 4 hrs followed by anti-CD3/CD28 stimulation for 20 mins by HTRF method; format: cell-based
T1 sequence (Q92918 whole entry): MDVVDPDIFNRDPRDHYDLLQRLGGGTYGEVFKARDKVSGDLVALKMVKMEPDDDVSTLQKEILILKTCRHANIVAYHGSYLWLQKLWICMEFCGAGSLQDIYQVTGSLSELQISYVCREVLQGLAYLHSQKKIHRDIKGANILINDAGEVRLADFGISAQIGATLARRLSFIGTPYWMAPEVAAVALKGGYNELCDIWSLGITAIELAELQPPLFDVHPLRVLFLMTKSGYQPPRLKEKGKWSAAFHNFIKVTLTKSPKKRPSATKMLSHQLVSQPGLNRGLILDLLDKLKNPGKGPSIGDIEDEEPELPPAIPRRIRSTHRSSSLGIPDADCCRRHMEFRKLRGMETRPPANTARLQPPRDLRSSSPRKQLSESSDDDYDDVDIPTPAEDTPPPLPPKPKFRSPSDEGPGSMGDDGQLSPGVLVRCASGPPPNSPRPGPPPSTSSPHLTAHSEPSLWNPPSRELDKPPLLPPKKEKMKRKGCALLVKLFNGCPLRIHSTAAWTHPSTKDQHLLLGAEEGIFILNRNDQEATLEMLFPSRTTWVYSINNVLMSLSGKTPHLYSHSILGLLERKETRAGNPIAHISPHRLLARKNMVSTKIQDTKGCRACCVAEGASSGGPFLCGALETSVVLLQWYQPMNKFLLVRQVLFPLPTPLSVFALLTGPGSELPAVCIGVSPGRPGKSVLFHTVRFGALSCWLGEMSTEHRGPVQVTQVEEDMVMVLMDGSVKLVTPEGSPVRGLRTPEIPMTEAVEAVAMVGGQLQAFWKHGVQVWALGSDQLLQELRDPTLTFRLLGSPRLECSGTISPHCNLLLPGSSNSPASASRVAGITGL

[26] = in vivo; details: Beagle, dog, plasma, iv, 1 mg/kg
Description: Clearance in Beagle dog plasma at 1 mg/kg, iv

[27] = biological target: Tyrosine-protein kinase JAK3 (Homo sapiens, UniProt P52333); assay: Inhibition of JAK3 (unknown origin)
Sequence of Tyrosine-protein kinase JAK3 (P52333 whole entry): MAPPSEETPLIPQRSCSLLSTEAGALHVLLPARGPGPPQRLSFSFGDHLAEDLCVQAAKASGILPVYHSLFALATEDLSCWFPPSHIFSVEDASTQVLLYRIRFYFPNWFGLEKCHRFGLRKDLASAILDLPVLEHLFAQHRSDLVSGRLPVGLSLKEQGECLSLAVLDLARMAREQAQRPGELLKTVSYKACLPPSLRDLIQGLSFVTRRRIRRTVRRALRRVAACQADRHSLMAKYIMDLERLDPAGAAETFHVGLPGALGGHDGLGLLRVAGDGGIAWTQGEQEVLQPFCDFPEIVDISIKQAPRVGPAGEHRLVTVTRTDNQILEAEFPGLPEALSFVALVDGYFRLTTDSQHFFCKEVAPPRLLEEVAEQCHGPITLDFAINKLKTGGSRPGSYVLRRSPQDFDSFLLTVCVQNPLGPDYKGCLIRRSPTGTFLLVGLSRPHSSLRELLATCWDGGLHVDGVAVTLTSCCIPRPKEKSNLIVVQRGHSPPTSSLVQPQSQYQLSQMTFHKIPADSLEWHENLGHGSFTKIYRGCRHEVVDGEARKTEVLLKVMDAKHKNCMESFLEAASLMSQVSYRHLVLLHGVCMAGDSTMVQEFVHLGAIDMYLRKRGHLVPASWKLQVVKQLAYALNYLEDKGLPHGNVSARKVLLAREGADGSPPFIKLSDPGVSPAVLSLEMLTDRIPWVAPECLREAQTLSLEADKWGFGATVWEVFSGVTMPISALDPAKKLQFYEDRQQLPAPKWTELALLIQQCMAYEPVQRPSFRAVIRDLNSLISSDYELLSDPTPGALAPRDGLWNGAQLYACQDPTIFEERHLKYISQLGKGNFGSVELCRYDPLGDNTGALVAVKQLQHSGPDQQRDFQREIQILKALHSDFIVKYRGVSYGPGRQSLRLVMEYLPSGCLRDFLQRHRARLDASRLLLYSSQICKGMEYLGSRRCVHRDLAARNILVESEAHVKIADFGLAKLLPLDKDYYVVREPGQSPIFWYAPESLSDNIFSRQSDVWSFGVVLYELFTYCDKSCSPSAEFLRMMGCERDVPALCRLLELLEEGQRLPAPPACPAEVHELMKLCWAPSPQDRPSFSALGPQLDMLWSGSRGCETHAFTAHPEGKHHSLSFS

[28] = Toxicity in C57BL/6 mouse implanted with mouse MC38 cells assessed as effect on body weight loss at low dose, po BID measured after 12 days in presence of anti-PD-1; format: organism-based; details: in vivo, 288 h, time 12 day
[29] = Half life in Balb/c mouse at 10 mg/kg, po; format: ADME, organism-based; details: in vivo
[30] = test system: CT26; assay: Antitumor activity against mouse CT26 cells implanted in Balb/c mouse model assessed as tumor growth inhibition administered as po dose BID measured after 15 days relative to control; format: functional; details: time 15 day
[31] = Genotoxicity in Salmonella typhimurium TA100 incubated for 48 to 72 hrs in presence of S9 fraction by AMES test; format: toxicity, subcellular; details: salmonella enterica subsp. enterica serovar typhimurium, time 48-72 hrs
[32] = Plasma protein binding in cynomolgous monkey assessed as unbound fraction at 2 uM incubated for 4 hrs by LC-MS/MS analysis; format: ADME, cell-free, Macaca fascicularis; details: cynomolgus monkey
[33] = Effect on IL-2 secretion in human T cells by ELISA method; format: functional, cell-based; details: T-cell
[34] = biological target: Tyrosine-protein kinase SYK (Homo sapiens, UniProt P43405); assay: Inhibition of SYK (unknown origin)
[35] = in vivo; details: Beagle, dog, po, 2 mg/kg
[36] = biological target: Proto-oncogene tyrosine-protein kinase Src (Homo sapiens, UniProt P12931); assay: Inhibition of SRC (unknown origin)
Sequence of Proto-oncogene tyrosine-protein kinase Src (P12931 2-536 limits assumed): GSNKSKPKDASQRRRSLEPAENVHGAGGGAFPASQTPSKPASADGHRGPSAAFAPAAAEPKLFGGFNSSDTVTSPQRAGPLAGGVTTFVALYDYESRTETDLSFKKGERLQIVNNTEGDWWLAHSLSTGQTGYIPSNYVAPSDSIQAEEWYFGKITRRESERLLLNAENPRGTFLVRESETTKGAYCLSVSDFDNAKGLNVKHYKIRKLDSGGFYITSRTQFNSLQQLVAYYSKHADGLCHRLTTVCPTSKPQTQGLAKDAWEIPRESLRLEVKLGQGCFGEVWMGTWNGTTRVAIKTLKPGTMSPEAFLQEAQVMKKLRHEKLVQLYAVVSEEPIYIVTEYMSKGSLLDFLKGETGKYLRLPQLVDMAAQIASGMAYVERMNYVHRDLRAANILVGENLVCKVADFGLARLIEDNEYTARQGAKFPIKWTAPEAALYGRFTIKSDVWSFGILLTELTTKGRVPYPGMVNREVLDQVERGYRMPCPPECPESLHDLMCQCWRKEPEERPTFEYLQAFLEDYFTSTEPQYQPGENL

[37] = biological target: T1, Mitogen-activated protein kinase kinase kinase kinase 1; assay: Inhibition of human recombinant wild type N-terminal HPK1 (1 to 346 residues) infected in insect Sf21 cells using fluorescein-PKC as substrate preincubated for 10 mins followed by substrate addition and measured after 90 mins by microplate reader based analysis; format: single protein
[38] = Efflux ratio in human Caco-2 cells; format: ADME, cell-based
[39] = biological target: Receptor-type tyrosine-protein kinase FLT3 (Homo sapiens, UniProt P36888); assay: Inhibition of FLT3 (unknown origin)
[40] = Plasma protein binding in human assessed as unbound fraction at 2 uM incubated for 4 hrs by LC-MS/MS analysis; format: ADME, cell-free
[41] = cynomolgus monkey, in vivo, po, 2 mg/kg
[42] = biological target: Serine/threonine-protein kinase PAK 1 (Homo sapiens, UniProt Q13153); assay: Inhibition of PAK1 (unknown origin)
[43] = biological target: Cytochrome P450 1A2 (Homo sapiens, UniProt P05177); assay: Inhibition of CYP1A2 in human liver microsomes using phenacetin O-demethylation as substrate incubated for 10 mins in presence of NADPH by LC-MS/MS analysis; format: ADME, Microsome

COc1cc(Nc2ccc3c(n2)CN(C)C32CCN(C3COC3)CC2)c(C(N)=O)nc1-c1cccc2c1ncn2C
inhibition in vivo at 12 mg/kg [1]: 59.4%
pIC50 [2]: < 5.00
Activity [3]: Non-toxic
pIC50 [4]: 6.94
pEC50 [5]: 7.31
Activity [6]: Non-toxic
pIC50 [7]: < 4.30
Activity [8]: Non-toxic
pIC50 [9]: < 5.00
solubility at 24 h [10]: 134 µM (≈ 74.3 µg/mL)
pIC50 [11]: 5.46
pIC50 [12]: < 5.00
pIC50 [13]: < 5.00
Vd [14]: 5.58 L/kg
fraction unbound at 4 h, 2 µM [15]: 0.079
pIC50 [16]: < 5.00
Activity [17]: Non-toxic
pIC50 [18]: < 5.00
pIC50 [19]: 6.30
Vd [20]: 2.2 L/kg
TGI [21]: 94.3%
half-life [22]: 3.42 h
inhibition in vivo at 3 mg/kg [23]: 34.9%
Activity [24]: Non-toxic
pEC50 [25]: 7.36
clearance [26]: 11.4 mL/min/kg
pIC50 [27]: < 5.00
Activity [28]: Non-toxic
half-life [29]: 1.45 h
TGI [30]: 64.3%
Activity [31]: Non-toxic
fraction unbound at 4 h, 2 µM [32]: 0.153
pEC50 [33]: 7.41
pIC50 [34]: < 5.00
bioavailability [35]: 41.5%
pIC50 [36]: 5.68
pIC50 [37]: > 9.29
efflux ratio [38]: 8.4
pIC50 [39]: 6.50
fraction unbound at 4 h, 2 µM [40]: 0.129
AUC/dose [41]: 560.5 ng·h/mL
pIC50 [42]: < 5.00
pIC50 [43]: < 4.30
